Experimental data: patent US12329745B2, “Methods and compositions for treating glucocorticoid excess” (Sparrow Pharmaceuticals, Inc., priority 2022, dated 2025)
Marks after values point to notes of the source that are not given here.

Test system: C57BL/6 male mice
Test: Mitigation of corticosterone (CORT) adverse effects in mouse
Assay type: in vivo
Design: food consumption, group Mean: unit not given here
Experimental: A control group received no CORT or SPI-62. Body weight was assessed daily and food consumption twice weekly. Whole body muscle and fat amounts were measured at Days 0, 14, and 28 using an EchoMRI-130H body composition analyzer. Blood samples for fasting glucose and insulin were obtained at Days 1 (pre-dose), 15, 29, and 35. An open field test was conducted on Day 22. A grip strength test was performed on Day 28. After sacrifice on Day 36, gonadal, subcutaneous, retroperitoneal, and mesenteric fat, quadriceps, and tibialis anterior were dissected and weighed, and skin was formalin fixed and paraffin embedded.

[1] = 10 mg/kg QD + CORT, post-mortem Day 36

Cn1c(-c2ccc(C(N)=O)cc2F)nnc1C(C)(C)Oc1c(F)cc(Cl)cc1F [SPI-62, 4-(5-(2-(4-chloro-2,6-difluorophenoxy)propan-2-yl)-4-methyl-4H-1,2,4-triazol-3-yl)-3-fluorobenzamide]
Whole-body muscle content LSM (10 mg/kg QD + CORT, Day 28): 0.80^b | HOMA-IR LSM (10 mg/kg QD + CORT, Day 29): 1.88^ab mmol glucose/μU insulin | HOMA-IR LSM (10 mg/kg QD + CORT, Day 35): 2.28^b mmol glucose/μU insulin | Fat depot weight, Gonadal, Mean [1]: 8.44 mg/g body weight | Fat depot weight, Mesenteric, Mean [1]: 6.23 mg/g body weight | Fat depot weight, Retroperitoneal, Mean [1]: 2.40 mg/g body weight | Fat depot weight, Subcutaneous, Mean [1]: 3.35 mg/g body weight | Muscle weight, Quadriceps, Mean [1]: 5.33 mg/g body weight | Muscle weight, Tibialis anterior, Mean [1]: 2.14 mg/g body weight | body weight, group Mean (1 mpk QD + CORT, Baseline): 22.1 g | food consumption, group Mean (1 mpk QD + CORT, Day 4): 3.26 | food consumption, group Mean (1 mpk QD + CORT, Day 8): 2.92 | food consumption, group Mean (1 mpk QD + CORT, Day 11): 3.09 | body weight, group Mean (1 mpk QD + CORT, Day 15): 21.9 g | food consumption, group Mean (1 mpk QD + CORT, Day 15): 3.04 | food consumption, group Mean (1 mpk QD + CORT, Day 18): 2.91 | food consumption, group Mean (1 mpk QD + CORT, Day 22): 3.23 | food consumption, group Mean (1 mpk QD + CORT, Day 25): 3.74 | body weight, group Mean (1 mpk QD + CORT, Day 29): 23.2 g | food consumption, group Mean (1 mpk QD + CORT, Day 29): 2.90 | food consumption, group Mean (1 mpk QD + CORT, Day 32): 2.77 | body weight, group Mean (1 mpk QD + CORT, Day 35): 23.8 g | food consumption, group Mean (1 mpk QD + CORT, Day 36): 3.13 | body weight, group Mean (10 mpk BID + CORT, Baseline): 22.1 g | food consumption, group Mean (10 mpk BID + CORT, Day 4): 3.36 | food consumption, group Mean (10 mpk BID + CORT, Day 8): 2.88 | food consumption, group Mean (10 mpk BID + CORT, Day 11): 2.92 | body weight, group Mean (10 mpk BID + CORT, Day 15): 21.5 g | food consumption, group Mean (10 mpk BID + CORT, Day 15): 2.74 | food consumption, group Mean (10 mpk BID + CORT, Day 18): 3.36 | food consumption, group Mean (10 mpk BID + CORT, Day 22): 2.89 | food consumption, group Mean (10 mpk BID + CORT, Day 25): 3.13 | body weight, group Mean (10 mpk BID + CORT, Day 29): 21.7 g | food consumption, group Mean (10 mpk BID + CORT, Day 29): 2.79 | food consumption, group Mean (10 mpk BID + CORT, Day 32): 3.27 | body weight, group Mean (10 mpk BID + CORT, Day 35): 21.8 g | food consumption, group Mean (10 mpk BID + CORT, Day 36): 2.83 | body weight, group Mean (10 mpk QD + CORT, Baseline): 22 g | food consumption, group Mean (10 mpk QD + CORT, Day 4): 3.37 | food consumption, group Mean (10 mpk QD + CORT, Day 8): 2.98 | food consumption, group Mean (10 mpk QD + CORT, Day 11): 3.11 | body weight, group Mean (10 mpk QD + CORT, Day 15): 21.4 g | food consumption, group Mean (10 mpk QD + CORT, Day 15): 2.91 | food consumption, group Mean (10 mpk QD + CORT, Day 18): 3.08 | food consumption, group Mean (10 mpk QD + CORT, Day 22): 3.15 | food consumption, group Mean (10 mpk QD + CORT, Day 25): 3.50 | body weight, group Mean (10 mpk QD + CORT, Day 29): 22.2 g | food consumption, group Mean (10 mpk QD + CORT, Day 29): 2.99 | food consumption, group Mean (10 mpk QD + CORT, Day 32): 3.00 | body weight, group Mean (10 mpk QD + CORT, Day 35): 22.8 g | food consumption, group Mean (10 mpk QD + CORT, Day 36): 3.24 | CORT effects on dermal thickness and structure (35 days, FIG. 12): less prominent | effect in the open field test (Day 22): No effect | CORT adverse effect of grip strength reduction (Day 28): prevented
